For six molecules, melting point results are on record in US7034049B1, “3(5)-amino-pyrazole derivatives, process for their preparation and their use as antitumor agents” (Pharmacia Italia S.p.A., priority 1999, dated 2006).

A word on the melting point: it is the temperature, or range, at which the solid turns liquid. On to `COC(=O)c1ccc(C(=O)Nc2cc(C3CC3)n[nH]2)cc1` [Compound 94, Methyl 4-{[(3-cyclopropyl-1H-pyrazol-5-yl)amino]carbonyl}benzoate], for which the melting point lay within 173 to 174 °C.
With `O=C(CCc1ccccc1)Nc1cc(C2CC2)n[nH]1` [Compound 93, N-(3-cyclopropyl-1H-pyrazol-5-yl)-3-phenylpropanamide] the figure was 152 to 160 °C.
`CC(=O)Nc1cc(C2CC2)n[nH]1` [Compound 88, N-(3-cyclopropyl-1H-pyrazol-5-yl)acetamide] gave a melting point of 167 to 171 °C.
Next, `O=C(Nc1cc(C2CC2)n[nH]1)c1cc2ccccc2[nH]1` [Compound 102, N-(3-cyclopropyl-1H-pyrazol-5-yl)-1H-indole-2-carboxamide]: 268 to 269 °C; `O=C(Nc1cc(C2CC2)n[nH]1)c1cc2ccccc2s1` [Compound 91, N-(3-cyclopropyl-1H-pyrazol-5-yl)-1-benzothiophene-2-carboxamide]: 238 to 239 °C.
With `O=C(Nc1cc(C2CC2)n[nH]1)c1ccc[nH]1` [Compound 248, N-(3-cyclopropyl-1H-pyrazol-5-yl)-1H-pyrrole-2-carboxamide] the figure was 220 to 221 °C.
